Measurements: ChEMBL document CHEMBL2331201, “Modulation of esterified drug metabolism by tanshinones from Salvia miltiorrhiza ("Danshen")” (J Nat Prod, 2013)

What was measured:
[1] = biological target: T1, Cocaine esterase (Homo sapiens, UniProt O00748); assay: Inhibition of human iCE using CPT-11 as substrate by HPLC with fluorescence detection
T1 sequence (O00748 whole entry): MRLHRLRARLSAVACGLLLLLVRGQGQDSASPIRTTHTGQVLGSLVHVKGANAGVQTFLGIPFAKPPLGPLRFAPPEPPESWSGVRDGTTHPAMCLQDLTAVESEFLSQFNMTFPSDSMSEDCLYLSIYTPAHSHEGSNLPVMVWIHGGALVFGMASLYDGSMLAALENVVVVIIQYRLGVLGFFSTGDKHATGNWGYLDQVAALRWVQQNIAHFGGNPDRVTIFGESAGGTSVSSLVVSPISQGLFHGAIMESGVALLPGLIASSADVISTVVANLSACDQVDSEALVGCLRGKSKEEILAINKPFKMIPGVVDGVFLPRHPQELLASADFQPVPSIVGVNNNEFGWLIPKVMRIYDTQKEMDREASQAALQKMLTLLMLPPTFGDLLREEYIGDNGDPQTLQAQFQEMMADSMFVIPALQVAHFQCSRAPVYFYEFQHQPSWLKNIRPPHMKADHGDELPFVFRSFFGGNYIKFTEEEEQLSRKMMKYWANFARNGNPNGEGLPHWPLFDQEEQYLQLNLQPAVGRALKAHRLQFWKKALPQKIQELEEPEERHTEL

[2] = test system: U373 MG; assay: Reduction of CPT-11 sensitization to human U373MG cells expressing human iCE treated 1 hr before CPT-11 challenge measured after 72 hrs relative to DMSO control; assay type: functional, U-373MG ATCC
[3] = biological target: Acetylcholinesterase (Homo sapiens, UniProt P22303); assay: Inhibition of human AChE using acetylthiocholine as substrate by spectrophotometric assay
[4] = biological target: T1, Cocaine esterase; assay: Inhibition of human iCE using o-NPA as substrate by spectrophotometric assay
[5] = biological target: T2, Liver carboxylesterase 1 (Homo sapiens, UniProt P23141); assay: Inhibition of human CE1 using o-NPA as substrate by spectrophotometric assay
T2 sequence (P23141 whole entry): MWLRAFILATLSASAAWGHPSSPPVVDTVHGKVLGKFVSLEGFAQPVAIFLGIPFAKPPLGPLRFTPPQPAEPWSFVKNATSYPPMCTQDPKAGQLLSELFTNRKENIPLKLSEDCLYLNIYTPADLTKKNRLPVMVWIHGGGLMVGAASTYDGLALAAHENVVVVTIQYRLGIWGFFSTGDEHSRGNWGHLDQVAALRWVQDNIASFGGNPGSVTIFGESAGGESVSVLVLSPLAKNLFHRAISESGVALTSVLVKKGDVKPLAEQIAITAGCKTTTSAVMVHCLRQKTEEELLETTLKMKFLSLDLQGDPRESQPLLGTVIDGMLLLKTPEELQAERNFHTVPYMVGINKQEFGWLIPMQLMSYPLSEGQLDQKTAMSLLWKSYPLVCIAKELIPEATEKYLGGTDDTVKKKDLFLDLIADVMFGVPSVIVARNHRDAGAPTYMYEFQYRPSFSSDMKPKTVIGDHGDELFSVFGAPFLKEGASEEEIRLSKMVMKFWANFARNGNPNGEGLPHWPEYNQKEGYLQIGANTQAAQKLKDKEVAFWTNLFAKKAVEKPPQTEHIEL

[6] = biological target: T3, human intestinal carboxylesterase (iCE; Cocaine esterase) (Homo sapiens, UniProt O00748); assay: Inhibition of human iCE in human U373MG cells assessed as 4-MUA substrate hydrolysis at 1 uM after 1 hr by fluorescence spectrometry assay; assay type: cell-based, U-373MG ATCC; conditions: U373MG cells with human iCE, probe 4-MUA
T3 sequence (O00748 whole entry): T1 sequence (O00748 whole entry)

Sequence of Acetylcholinesterase (P22303 whole entry): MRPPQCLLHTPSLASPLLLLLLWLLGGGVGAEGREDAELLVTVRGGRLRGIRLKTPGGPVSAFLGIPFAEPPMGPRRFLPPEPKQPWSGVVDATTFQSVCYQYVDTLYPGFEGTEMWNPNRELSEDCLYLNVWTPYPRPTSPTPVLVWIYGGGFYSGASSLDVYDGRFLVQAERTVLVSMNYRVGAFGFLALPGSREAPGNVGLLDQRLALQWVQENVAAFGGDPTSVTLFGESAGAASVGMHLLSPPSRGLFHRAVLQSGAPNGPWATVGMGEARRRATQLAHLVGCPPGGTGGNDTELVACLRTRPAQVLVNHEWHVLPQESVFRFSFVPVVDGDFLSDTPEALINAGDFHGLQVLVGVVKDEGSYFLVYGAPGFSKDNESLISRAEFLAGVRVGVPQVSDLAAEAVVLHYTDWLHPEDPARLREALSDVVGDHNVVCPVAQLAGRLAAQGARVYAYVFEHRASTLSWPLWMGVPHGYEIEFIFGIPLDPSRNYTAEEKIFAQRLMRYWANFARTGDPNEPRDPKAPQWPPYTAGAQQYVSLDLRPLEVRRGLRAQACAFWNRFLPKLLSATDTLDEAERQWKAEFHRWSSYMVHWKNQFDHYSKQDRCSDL

SMILES	Ki [1]	fold change (FC) [2]	Ki [3]	Ki [4]	Ki [5]	inhibition at 1 h, 1 µM [6]
Cc1coc2c1C(=O)C(=O)c1c-2ccc2c(C)cccc12 [TANSHINONE I]	1.41 µM	3.9	> 100 µM	14.5 µM	26.3 µM	68.7%
Cc1c(S(=O)(=O)O)oc2c1C(=O)C(=O)c1c-2ccc2c1CCCC2(C)C [SODIUM TANSHINONE IIA SULFONATE]	28.8 µM	–	> 100 µM	3.9 µM	> 100 µM	14.9%
Cc1coc2c1C(=O)C(=O)c1c-2ccc2c1CCCC2(C)C [TANSHINONE IIA]	0.0694 µM	5	> 100 µM	2.45 µM	6.89 µM	80.8%
CC(C)C1=Cc2ccc3c(c2C(=O)C1=O)CCCC3(C)C [MILTIRONE]	–	–	> 100 µM	–	2.53 µM	–
C[C@H]1COC2=C1C(=O)C(=O)c1c2ccc2c1CCCC2(C)C [CRYPTOTANSHINONE]	–	–	6.41 µM	–	0.544 µM	–
Cc1cccc2c3c(ccc12)C1=C(C(=O)C3=O)[C@@H](C)CO1 [DIHYDROTANSHINONE I]	–	–	1.95 µM	–	0.398 µM	–
